Data set [1] can be described thus: Plasma pharmacokinetics after single intravenous bolus dose. Format: in vivo, cat. To be noted: for Vd: read-out: volume of distribution. On the procedure:
(§1) The test item was applied as single oral dose at the expected target dose rate of 5 mg molidustat sodium per kg bw, at 2.5 mg/kg and at 10 mg/kg to healthy adult cats. A single intravenous bolus dose of 5.0 mg/kg was applied for comparison using a suitable reference item (molidustat sodium aqueous solution 2.0% (m/v)).
(§2) Following a mixed serial/cross-over design, 16 healthy, adult cats (8 neutered males, 8 spayed females) were included in the study and allocated to […]. The animals were between 13.7 and 14.7 months old and weighed between 3.3 and 6.0 kg at start of the in-life phase.
(§3) The dose rates administered were at means of 2.42 mg/kg, 4.79, and 9.54 mg molidustat sodium per kg for the 0.5×, 1×, 2× dose groups, respectively. The reference item was dosed at an actual mean dose rate of 5.15 mg/kg. Dose rate calculations were based on the body weights determined prior to each study period.
(§4) Fifteen blood samples were drawn per animal after oral dosing (16 samples/animal after intravenous dosing) following a pre-determined schedule deemed suitable to describe the pharmacokinetic profile of the active substance contained in the test and reference item after single oral or intravenous dosing to cats.
(§5) Concentrations of the active substance molidustat and its major […] were analyzed by High Performance Liquid Chromatography/Tandem Mass Spectrometry in accordance with method 01469 (Krebber et al., Analytical method for the determination of BAY 85-3934 and its metabolite BAY 116-3348 in plasma by LC-MS/MS, BAG-CS report MR-15/109). The lower limit of quantitation was 5 μg/L for each substance.
(§6) Pharmacokinetic evaluation of plasma concentration data was based on the observed data using non-compartmental methods and comprised all PK-parameters to adequately describe the absorption, distribution and elimination phase of the active substance and its metabolite after oral or intravenous dosing with the test or reference item. For pharmacokinetic evaluation actual individual dose rates were used to account for the small differences between target and actual dose rates. All animals finished the in-life phase according to schedule.

Data set [2] is described as follows: Plasma pharmacokinetics, oral bioavailability and dose proportionality after single oral dose. Format: in vivo, cat. To be noted: both sexes, geometric mean (CV). On the procedure:
as §1, §2, §3, §4, §5, §6

[3] abbreviates: both sexes, plasma, 5 mg/kg, single intravenous bolus 5 mg molidustat sodium per kg.
[4] abbreviates: female, plasma, iv, 5 mg/kg, females.
Where [5] appears, read: male, plasma, iv, 5 mg/kg, males.

Where two headings read alike, the source gives them in different places.

On to `O=c1c(-n2ccnn2)c[nH]n1-c1cc(N2CCOCC2)ncn1` [molidustat, 2-[6-(morpholin-4-yl)pyrimidin-4-yl]-4-(1H-1,2,3-triazol-1-yl)-2,3-dihydro-1H-pyrazol-3-one], for which the clearance in data set [1] (setting [3]) is 5.17 mL/min/kg; in data set [1] (setting [4]), 5.5 mL/min/kg; in data set [1] (setting [5]) it was 5 mL/min/kg. In addition, the half-life was 5.91 h in data set [1] (both sexes, plasma, 5 mg/kg, single intravenous bolus 5 mg molidustat sodium per kg, read-out: elimination half-life (converted)); 5 h in data set [2] (2.5 mg/kg single oral dose); 4.6 h in data set [2] (5.0 mg/kg single oral dose); 7.1 h in data set [2] (10 mg/kg single oral dose). For the same compound, the Vd was determined as 2.69 L/kg in data set [1] (setting [3]), 2.96 L/kg in data set [1] (setting [4]) and 2.36 L/kg in data set [1] (setting [5]). The mean plasma exposure in data set [1] (single intravenous bolus 5 mg molidustat sodium per kg (aqueous solution 2.0%)) came out at 16350 ng·h/mL. The AUC in data set [2] (2.5 mg/kg single oral dose) was 5600 ng·h/mL; in data set [2] (5.0 mg/kg single oral dose) it was 12700 ng·h/mL; in data set [2] (10 mg/kg single oral dose), 23500 ng·h/mL. Further, the Cmax in data set [2] (2.5 mg/kg single oral dose) worked out at 2700 ng/mL; in data set [2] (5.0 mg/kg single oral dose), 3830 ng/mL; in data set [2] (10 mg/kg single oral dose), 6730 ng/mL. The Tmax worked out at 0.5 h in data set [2] (2.5 mg/kg single oral dose), 1 h in data set [2] (5.0 mg/kg single oral dose) and 1 h in data set [2] (10 mg/kg single oral dose).

As usually defined, the clearance is the rate of elimination divided by the concentration. Read a high clearance as a high capacity for elimination. The term half-life denotes how long it takes for the measured level to halve. As a reminder, the AUC is the area under the concentration-time curve, a measure of exposure. In general, Cmax refers to the peak of the concentration-time curve. Usually Tmax stands for the time from dosing to the highest level.

The values above are taken from US20250161317A1, “MOLIDUSTAT FORMULATIONS AND METHODS OF USE FOR TREATMENT OF ANEMIA IN CATS” (ELANCO US INC., priority 2022, published 2025).
